Here are results for 54 compounds from patent US20240018102A1, “COMPOUNDS AND COMPOSITIONS FOR TREATING CONDITIONS ASSOCIATED WITH LPA RECEPTOR ACTIVITY” (Lhotse Bio, Inc., priority 2020, published 2024).

T1 sequence (Q92633 whole entry): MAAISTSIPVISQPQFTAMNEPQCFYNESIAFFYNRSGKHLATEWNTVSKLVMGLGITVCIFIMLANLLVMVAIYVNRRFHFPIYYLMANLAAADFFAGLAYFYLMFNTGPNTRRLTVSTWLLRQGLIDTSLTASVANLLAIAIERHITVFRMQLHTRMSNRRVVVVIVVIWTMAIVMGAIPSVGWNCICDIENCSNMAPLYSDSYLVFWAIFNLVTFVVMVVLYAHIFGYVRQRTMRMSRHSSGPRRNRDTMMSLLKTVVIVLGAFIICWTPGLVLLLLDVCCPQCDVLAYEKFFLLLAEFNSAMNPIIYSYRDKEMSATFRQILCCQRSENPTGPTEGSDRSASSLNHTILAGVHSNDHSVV

This test addresses T1, human LPA1 (Homo sapiens, UniProt Q92633).
T1 construct: expressed in transfected cells; host or cells: CHO-K1
The test is described as follows: In vitro LPA1 calcium flux antagonist assay, Bioduro protocol. It counts as cell-based. Particulars: CHO-K1 cells overexpressing human LPA1 and G15a; LPA challenge at EC80; calcium mobilization on FLIPR Tetra; read-out: IC50 (nM) in Assay B2. The method, then:
In Vitro LPA1 Calcium Flux Antagonist Assay Bioduro Protocol
CHO-K1 cells overexpressing human LPA1 and G15a were seeded at a total volume of 20 uL (15000 cells/well) into Matrigel pre-coated 384-well plates (coming -3764) and incubated at 37° C. After overnight incubation, the cells were serum starved for 4 h. Assays were performed in dye loading buffer containing 1× Fluo-8 AM (AAT Bioquest, 21080) and 2.5 mM probenecid (Thermo Fisher, 36400) in HBSS/20 mM Hepes. After cell starvation, the medium was replaced with 20 uL of dye loading buffer and incubated at 37° C. for 30 min. Then 5 uL of 5× compound titrated in dye loading buffer was added to the cells and incubated for 30 min followed by LPA challenge at EC80. Calcium mobilization was measured on a FLIPR Tetra (MDS). For LPA EC80 determination, starved cells were incubated with 20 uL of dye loading buffer for 1 h, then 5 uL of 5×LPA titrated in dye loading buffer was added to the cells. Calcium signals induced by LPA was monitors on a FLIPR.
Percentage inhibition is calculated using the following formula:
% Inhibition=100%×(1−(mean RFU of test sample−mean RFU of DMSO)/(mean RFU of LPA control−mean RFU of DMSO)).
Background: Calcium flux is commonly read through the fluorescence of an indicator in the cells.
The term IC50 denotes the concentration needed to halve the response being measured. Regarding `COc1cc([C@@H](O)[C@H](Cn2cc3nc(Cl)cc(C(=O)O)c3n2)OC2CCCC2)cc(OC)c1C` [Compound 198], the IC50 worked out at 6.87 nM.
For the compound `COc1cc([C@@H](O)[C@H](Cc2nc3c(C(=O)O)cc(C4CC4)cc3s2)OCC(C)C)cc(OC)c1C` [Compound 271], the IC50 worked out at 2.19 nM.
Next, `COc1cc([C@@H](O)[C@H](Cn2cc3nccc(C(=O)O)c3n2)OC2CCCC2)cc(OC)c1C` [Compound 160, 2-((2S,3R)-2-(cyclopentyloxy)-3-(3,5-dimethoxy-4-methylphenyl)-3-hydroxypropyl)-2H-pyrazolo[4,3-b]pyridine-7-carboxylic acid]: 138 nM; `COc1cc([C@@H](O)[C@H](Cc2cc3cc(C(F)(F)F)cc(C(=O)O)n3n2)OC2CCCC2)cc(OC)c1C` [Compound 250]: 17.4 nM.
On to `COc1cc([C@@H](O)[C@H](Cc2cn3cccc(C(=O)O)c3n2)OC2CCCC2)cc(OC)c1C` [Compound 248], for which the IC50 was not below 10000 nM.
For `COC(=O)Cc1nc(CC(OC2CCCC2)[C@H](O)c2cc(OC)c(C)c(OC)c2)sc1C(=O)O` (stereo partly drawn) [Compound 210], the IC50 is 7810 nM.
Next, `CCc1cc(C(=O)O)c2nn(C[C@H](OC3CCCC3)[C@H](O)c3cc(OC)c(C)c(OC)c3)cc2c1` [Compound 172]: 4.01 nM; `CCOc1cc([C@@H](O)[C@H](Cn2cc3nccc(C(=O)O)c3n2)OC2CCCC2)cc(OCC)c1C` [Compound 203]: 530 nM.
Next, `COc1cc([C@@H](O)[C@H](Cc2cc3cccc(C(=O)O)n3n2)OC2Cc3ccccc3C2)cc(OC)c1C` [Compound 264]: 5.33 nM; `CCCc1sc(C[C@H](OC2CCCC2)[C@H](O)c2cc(OC)c(C)c(OC)c2)nc1[C@@H](C)C(=O)O` [Compound 261]: 366 nM.
Next, `COc1cc([C@@H](O)[C@H](Cn2cc3nccc(C(=O)O)c3n2)OCCCc2ccccc2)cc(OC)c1C` [Compound 214]: more than 10000 nM; `COc1cc([C@@H](O)[C@H](Cc2nc([C@@H](C)C(=O)O)c(C)s2)OC2CCCC2)cc(OC)c1C` (single isomer, unassigned) [Compound 240]: 885 nM.
As for `COc1cc([C@@H](O)[C@H](Cc2nc3cccc(C(=O)O)n3n2)OC2CCCC2)cc(OC)c1C` [Compound 167], the IC50 was more than 10000 nM.
Next, `COc1cc([C@@H](O)[C@H](Cn2cc3cc(C4CC4)cc(C(=O)O)c3n2)OC2CCCC2)cc(OC)c1C` [Compound 166]: 4.94 nM; `COc1cc([C@@H](O)[C@H](Cn2cc3cccc(C(=O)O)c3n2)OC2CCC(F)(F)CC2)cc(OC)c1C` [Compound 149]: 299 nM.
Next, `COc1cc([C@@H](O)[C@H](Cn2cc3nccc(C(=O)O)c3n2)OC2CCCC2)ccc1C(F)F` [Compound 189]: 454 nM.
Regarding `COc1cc([C@@H](O)[C@H](Cn2cc3nccc(C(=O)O)c3n2)OC2CCCC2)cc(OC)c1C(F)F` [Compound 215], the IC50 worked out at 140 nM.
Next, `CCOc1cc([C@@H](O)[C@H](Cc2nc3c(C(=O)O)cccc3s2)OCC(C)C)ccc1C(C)=O` [Compound 258]: 449 nM; `COc1cc([C@@H](O)[C@H](Cc2nc3c(C(=O)O)cccc3n2C)OC2CCCC2)cc(OC)c1C` [Compound 175]: more than 10000 nM; `COc1cc([C@@H](O)[C@H](Cc2nc3c(C(=O)O)cc(C)cc3s2)OCC(C)C)cc(OC)c1C` [Compound 234, 2-((2S,3R)-3-(3,5-dimethoxy-4-methylphenyl)-3-hydroxy-2-isobutoxypropyl)-6-methylbenzo[d]thiazole-4-carboxylic acid]: 3.71 nM.
Next, `COc1cc([C@@H](O)[C@H](Cn2cc3cccc(C(=O)O)c3n2)OC2CCCCC2)ccc1C(F)F` [Compound 148]: 525 nM; `COc1cc(C(=O)O)c2nc(C[C@H](OC3Cc4ccccc4C3)[C@H](O)c3cc(OC)c(C)c(OC)c3)sc2c1` [Compound 274]: 3.71 nM.
Next, `COc1cc([C@@H](O)[C@H](Cn2cc3nc(C4CC4)cc(C(=O)O)c3n2)OC2CCCC2)cc(OC)c1C` [Compound 196]: 16.3 nM.
For the compound `COc1cc(C(=O)O)c2nc(C[C@@H](OC3CCCC3)[C@H](O)c3cc(OC)c(C)c(OC)c3)sc2c1` [Compound 283], the IC50 worked out at 1760 nM.
For `COc1cc([C@@H](O)[C@H](Cc2nc3c(C(=O)O)cc(F)cc3s2)OCC2CCCC2)cc(OC)c1C` [Compound 263], the IC50 worked out at 10.1 nM.
Consider `COc1cc([C@@H](O)[C@H](Cc2nc3c(C(=O)O)cc(C4CC4)cc3s2)OC2CCCC2)cc(OC)c1C` [Compound 245], for which the IC50 is 2.51 nM.
Next, `COc1cc([C@@H](O)[C@H](Cc2nc3c(C(=O)O)cccc3s2)OC2Cc3ccccc3C2)cc(OC)c1C` [Compound 273]: 3.81 nM; `CCc1cc(C(=O)O)n2nc(C[C@H](OCC(C)C)[C@H](O)c3cc(OC)c(C)c(OC)c3)cc2c1` [Compound 241]: 26.7 nM.
On to `COc1cc([C@@H](O)[C@H](Cc2nc(CC(=O)O)c(C(C)C)s2)OC2CCCC2)cc(OC)c1C` [Compound 223], for which the IC50 is 99.4 nM.
Next, `COc1cc([C@@H](O)[C@H](Cn2cc3nc(C#N)cc(C(=O)O)c3n2)OC2CCCC2)cc(OC)c1C` [Compound 212]: 10.8 nM; `CCOc1cc([C@@H](O)[C@H](Cc2nc3c(C(=O)O)cccc3s2)OC2CCCC2)cc(OCC)c1C#N` [Compound 257, 2-((2S,3R)-3-(4-cyano-3,5-diethoxyphenyl)-2-(cyclopentyloxy)-3-hydroxypropyl) benzo [d]thiazole-4-carboxylic acid]: 47.2 nM.
Next, `CCOc1cc(C(=O)O)c2nc(C[C@H](OC3CCCC3)[C@H](O)c3cc(OC)c(C)c(OC)c3)sc2c1` [Compound 275]: 1.65 nM; `COc1cc([C@@H](O)C(Cc2nc(CC(=O)O)c(C(=O)O)s2)OC2CCCC2)cc(OC)c1C` (stereo partly drawn) [Compound 206]: 2120 nM; `COc1cc([C@@H](O)[C@H](Cn2cc3cccc(C(=O)O)c3n2)OC2CCCC2)cc(OC)c1OC` [Compound 147]: 126 nM.
Next, `COc1cc([C@@H](O)[C@H](Cc2nc3c(C(=O)O)cccn3n2)OC2CCCC2)cc(OC)c1C` [Compound 168]: more than 10000 nM; `COc1cc([C@@H](O)[C@H](Cn2cc3nccc(C(=O)O)c3n2)OC2CCCC2)cc(OC)c1Br` [Compound 224]: 327 nM.
As for `COc1cc([C@@H](O)[C@H](Cc2cc3cc(C4CC4)cc(C(=O)O)n3n2)OCC(C)C)cc(OC)c1C` [Compound 242], the IC50 was 7.5 nM.
Next, `COc1cc([C@@H](O)[C@H](Cn2cc3ccc(F)c(C(=O)O)c3n2)OC2CCCC2)cc(OC)c1C` [Compound 155]: 308 nM.
Next, `Cc1ccc([C@@H](O)[C@H](Cn2cc3cc(C#N)cc(C(=O)O)c3n2)OC2CCCC2)cc1OC(F)(F)F` [Compound 228]: 62.2 nM; `COc1cc(C(=O)O)c2nc(C[C@@H](OC3CCCC3)[C@@H](O)c3cc(OC)c(C)c(OC)c3)sc2c1` [Compound 284]: more than 10000 nM; `COc1cc([C@H](O)[C@H](Cc2nc3c(C(=O)O)cccc3s2)OC2CCCC2)cc(OC)c1C` [Compound 281]: 717 nM.
Regarding `CCCc1sc(C[C@H](OCC(C)C)[C@H](O)c2cc(OC)c(C)c(OC)c2)nc1C(C)C(=O)O` (stereo partly drawn) [Compound 267], the IC50 was 103 nM.
Next, `CCc1cc(C(=O)O)c2nc(C[C@H](OC3CCCC3)[C@H](O)c3cc(OC)c(C)c(OC)c3)sc2c1` [Compound 255]: 5.75 nM; `COc1cc([C@@H](O)[C@H](Cn2nnc3cccc(C(=O)O)c32)OC2CCCC2)cc(OC)c1C` (racemic) [Compound 209]: 812 nM.
For `COc1cc([C@@H](O)[C@H](Cn2cc3nccc(C(=O)O)c3n2)OC2CCCC2)cc(OC)c1C1CC1` [Compound 205], the IC50 came out at 507 nM.
On to `COc1cc([C@@H](O)[C@H](Cn2cc3c(=O)n(C)cc(C(=O)O)c3n2)OC2CCCC2)cc(OC)c1C` [Compound 174], for which the IC50 turned out to be 103 nM.
Regarding `COc1cc([C@@H](O)[C@H](Cn2cc3c(OC)ccc(C(=O)O)c3n2)OC2CCCC2)cc(OC)c1C` [Compound 216], the IC50 came to 9.61 nM.
Next, `CCCc1sc(C[C@H](OC2CCCC2)[C@H](O)c2cc(OC)c(C)c(OC)c2)nc1[C@H](C)C(=O)O` [Compound 260]: 28 nM; `COc1cc([C@@H](O)[C@H](Cc2nc3c(C(=O)O)cc(F)cc3s2)OC2CCCC2)cc(OC)c1C` [Compound 266]: 7.18 nM; `CCCc1sc(C[C@H](OC2CCCC2)[C@H](O)c2cc(OC)c(C(C)=O)c(OC)c2)nc1C(C)C(=O)O` (stereo partly drawn) [Compound 272]: 71.6 nM.
Next, `COc1cc([C@@H](O)[C@H](Cn2cc3nc(C(N)=O)cc(C(=O)O)c3n2)OC2CCCC2)cc(OC)c1C` [Compound 222]: 43.4 nM; `CCc1sc(C[C@H](OC2CCCC2)[C@H](O)c2cc(OC)c(C)c(OC)c2)nc1CC(=O)O` [Compound 178]: 73.8 nM.
Next, `COc1cc([C@@H](O)[C@H](Cn2cc3cccc(-c4nc(=O)o[nH]4)c3n2)OC2CCCC2)cc(OC)c1C` [Compound 181]: more than 10000 nM.
On to `COc1cc([C@@H](O)[C@H](Cn2cc3nc(C)cc(C(=O)O)c3n2)OC2CCCC2)cc(OC)c1C` [Compound 194], for which the half-inhibitory concentration (IC50) came out at 26.9 nM.
